{
  "source": "patent US6365407B1",
  "about": "“Culture medium composition useful for induction and proliferation of Taxus calli” (Council of Scientific & Industrial Research, priority 2001, dated 2002)",
  "type_in_all_cases": "cell-based, Himalayan Yew",
  "key": {"[1]": {"system": "callus tissues of Taxus baccata ssp. Wallichiana Zucc. Pilg.", "assay": "Growth of callus tissues on Picloram supplemented media", "conditions": "compared to media supplemented with other auxins reported earlier in the literature", "text": "(§1) Thus the combination of the modified medium of the present invention with Picloram, Sucrose, Phytagel and Antioxidants is novel and conducive for good callus growth and Taxane production in vitro. The details are described herewith. The present invention also provides a process for the enhanced production of taxol and/or taxane class of molecules in the said callus cultures which comprises inoculating any plant part of the Himalayan yew in the said culture medium for a period of 30 to 60 days in dark and at a temperature ranging between 24-26° C., to obtain the undifferentiated mass of callus culture, extracting the product by conventional solvent extraction methods and analyzing the compounds by HPLC. The stems, needles and seeds (for excision of embryos and endosperms) derived from mature trees of Taxus baccata ssp. Wallichiana Zucc. Pilg., Himalayan Yew were first washed in soap water for five min. followed by 95% ethanol treatment for one min. The alcohol was washed off with four washes of double distilled water. Surface sterilization was done with 0.1% HgCl2 for 10 min. under vacuum followed by six washes with sterile distilled water. Following this, the explants were inoculated aseptically in pre-sterilized plastic dishes (55-mm diameter) containing the medium of the present invention. The medium was prepared by mixing constituents mentioned in Tables 1 and 2. […]"}, "[2]": {"system": "ex-plants of Taxus baccata ssp. Wallichiana Zucc. Pilg.", "assay": "Callus induction from ex-plants of mature trees", "conditions": "with or without antioxidants", "text": "as §1"}, "[3]": {"system": "callus lines of Taxus baccata ssp. Wallichiana Zucc. Pilg.", "assay": "Taxane/taxol production in callus cultures, HPLC analysis", "text": "Thus the combination of the modified medium of the present invention with Picloram, Sucrose, Phytagel and Antioxidants is novel and conducive for good callus growth and Taxane production in vitro. The details are described herewith. The present invention also provides a process for the enhanced production of taxol and/or taxane class of molecules in the said callus cultures which comprises inoculating any plant part of the Himalayan yew in the said culture medium for a period of 30 to 60 days in dark and at a temperature ranging between 24-26° C., to obtain the undifferentiated mass of callus culture, extracting the product by conventional solvent extraction methods and analyzing the compounds by HPLC. The stems, needles and seeds (for excision of embryos and endosperms) derived from mature trees of Taxus baccata ssp. Wallichiana Zucc. Pilg., Himalayan Yew were first washed in soap water for five min. followed by 95% ethanol treatment for one min. The alcohol was washed off with four washes of double distilled water. Surface sterilization was done with 0.1% HgCl2 for 10 min. under vacuum followed by six washes with sterile distilled water. Following this, the explants were inoculated aseptically in pre-sterilized plastic dishes (55-mm diameter) containing the medium of the present invention.\nThe culture medium and method described in the present invention was tested on ex-plants of a number of matures trees (80-100 year old) collected from the Himalayas. The present protocol is applicable to all the ex-plants derived from all these trees of varying ages and genotypes. A series of callus lines were initiated and currently various callus lines of different ages produce the desirable taxanes. A number of callus lines of different ages and derived from diverse parent trees were analyzed by HPLC for detection of taxane class of molecules. […] For each of the callus lines, extractions were performed at least on three different occasions and duplicate HPLC injections were made on separate days to check for the reproducibility of the results."}},
  "data": [
    {"smiles": "Nc1c(Cl)c(Cl)nc(C(=O)O)c1Cl", "note": "[Picloram]", "values": [
      {"measurement": "enhanced growth rate of callus tissues", "setting": "[1]", "value": "1.5-2.0 times"},
      {"measurement": "Callus formation observed in ex-plants", "setting": "[2]; 0.5-2 mg.l^-1 picloram, tree nos. 2, 6 and 7", "value": 90, "unit": "%"},
      {"measurement": "Callus formation observed in ex-plants", "setting": "[2]; 4-6 mg.l^-1 picloram, tree nos. 1, 3 and 4", "value": 90, "unit": "%"},
      {"measurement": "taxol content of callus", "setting": "[3]; 0.5-2 mg.l^-1 picloram, callus lines derived from needles of tree nos. 2, 6 and 7", "value": "190-300 μg taxol/g dry weight"},
      {"measurement": "increase of taxol content in vitro than in vivo material", "setting": "[3]; 0.5-2 mg.l^-1 picloram, needles 0.934 μg taxol/g dry weight", "value": "203 to 321", "unit": "times"},
      {"measurement": "increase of taxol content compared to the in vivo material", "setting": "[3]; 4-6 mg.l^-1 picloram, callus line 6, needles 0.0941 μg taxol/g dry weight", "value": "5300-6200 times"},
      {"measurement": "taxol content of callus", "setting": "[3]; 4-6 mg.l^-1 picloram, callus line 6 derived from needles", "value": "500-590 μg taxol/g dry weight"},
      {"measurement": "enhanced Taxane production", "setting": "[3]; calli grown in Picloram supplemented media, compared to media supplemented with other auxins", "value": "2.0-5.4 times"},
      {"measurement": "Taxol production relative to in vivo needle tissues", "setting": "[3]; highest producer callus", "value": "~5000", "unit": "times"}
    ]}
  ]
}
